# Test results published in publication PMC13185819, “De Novo Multi‐Mechanism Antimicrobial Peptide Design via Multimodal Deep Learning” (Advanced Science, 2026).
# Residues, ends and D or L forms follow the SMILES beside them.
# Experiments:
# [1] = tested on: human red blood cells (hRBCs); assay: Hemolysis assay; type: cell-based; settings: human red blood cells 8% (v/v) in PBS pH 7.4, 1 h, 37°C, absorbance 570 nm; linear interpolation
# Experimental: Human red blood cells (hRBCs) were purchased from Xiamen Immocell Biotechnology Co., Ltd. For the hemolysis test, fresh human red blood cells (hRBCs) were washed three times with PBS (35 mM phosphate buffer, 0.15 M NaCl, pH 7.4) by centrifugation for 5 min at 1000 × g and resuspended in PBS. Then, 50 µL peptide solutions (serial twofold dilutions in PBS) were added to 100 µL of hRBC suspension [8% (v/v) in final] in PBS and incubated for 1 h at 37°C. Samples were centrifuged at 1000 × g for 5 min, and hemoglobin release was monitored by measuring the supernatant absorbance at 570 nm in a flat‐bottom 96‐well plate (Servicebio). hRBCs in PBS or 0.1% Triton X‐100 were used as the negative and positive controls, respectively.
# S. aureus CMCC26003 [2] = type: cell-based
# Experimental: (§1) Standard strains included S. aureus ATCC33592, S. aureus CICC25138, and Salmonella enterica ATCC14028, which were purchased from the China Center of Industrial Culture Collection (CICC). Standard strains including E.coli CMCC44102, Salmonella enterica CMCC50071, and S. aureus CMCC26003 were purchased from the National Center for Medical Culture Collections (CMCC). […] All experiments using the above strains were carried out in a BSL‐2 laboratory. The clinical laboratory of Qilu Hospital detected bacterial resistance to various antibiotics. All strains were streaked on Nutrient Broth (NB) agar medium and incubated overnight at 37°C.
# (§2) The antimicrobial activity of the peptides was examined in sterile 96‐well plates using the broth microdilution according to the CLSI standard. The colonies were suspended in saline solution, the turbidity was adjusted to McFarland 0.5 to reach a bacterial concentration of 10^8 CFU/mL, and again diluted 100 times for the inhibition test. Then, 50 µL of bacterial suspension at 1 × 10^6 CFU/mL was incubated with the same volume of different concentrations of peptide solution [serial twofold dilutions in Mueller–Hinton Broth (Hopebio)]. […] All experiments were performed with three independent replicates.
# K. pneumoniae 7713 = type: cell-based
# Experimental: as §1, §2
# E. faecium 1042 = type: cell-based
# Experimental: as §1, §2
# E. faecium 21 = type: cell-based
# Experimental: as §1, §2
# S. aureus ATCC33592 = type: cell-based
# Experimental: as §1, §2
# S. aureus CICC25138 = type: cell-based
# Experimental: as §1, §2
# E.coli 208 = type: cell-based
# Experimental: as §1, §2
# E.coli 110 = type: cell-based
# Experimental: as §1, §2
# E.coli CMCC44102 = type: cell-based
# Experimental: as §1, §2
# mice = assay: Systemic safety, intraperitoneal injection; type: in vivo, C57BL/6J mice; settings: intraperitoneal injection, 60 mg/kg, 96 h, n = 8
# Experimental: The 10‐week‐old female C57BL/6J mice were randomly divided into three groups (n = 8 for each group). […] Mouse survival was monitored for 96 h. For pathologic analysis, mouse liver and kidneys were obtained by surgery for hematoxylin‐eosin (HE) staining after treatment with 40 mg/kg QLX‐3DV‐1 and QLX‐3DV‐2 for 12 h.
# S. aureus CMCC26003 [3] = assay: Drug resistance assay, serial passaging; type: cell-based; settings: sub-MIC (1/2 × MIC), n = 3; for passages after which S. aureus developed resistance: passaged every 24 h, resistance = greater than fourfold MIC increase
# Experimental: For comparison, the development of resistance to the clinically relevant antibiotics clindamycin (Macklin) and vancomycin (Macklin) was determined. The evolution of resistance by S. aureus CMCC26003 to antibiotics and the peptide was monitored for 20 days of serial passaging in liquid NB. Cells were passaged every 24 h. Briefly, 1 mL of bacterial suspension (1 × 10^6 CFU/mL) was incubated with antibiotics or peptide solution at half the minimal inhibitory concentration at 37°C, 200 rpm. After each incubation period, a new inoculum of 10^6 cells was prepared for inoculation of the following passage containing fresh medium and increased doses of the antimicrobial agent. During the 20 days of serial passaging, the minimum inhibitory concentration of antibiotics or peptides to each generation of cells was determined. The MIC determination method was as previously described. The development of bacterial resistance was defined as a greater than fourfold increase in MICs compared to the initial MICs.
compound,measurement,setting,value
CC[C@H](C)[C@H](NC(=O)[C@H](CCSC)NC(=O)[C@H](Cc1c[nH]c2ccccc12)NC(=O)[C@@H](N)CCCCN)C(=O)N[C@@H](CCCCN)C(=O)N[C@@H](Cc1c[nH]c2ccccc12)C(=O)N1CCC[C@H]1C(=O)N[C@@H](CO)C(=O)N[C@@H](CC(N)=O)C(=O)N[C@@H](Cc1c[nH]c2ccccc12)C(=O)N[C@@H](Cc1ccccc1)C(=O)N[C@H](C(=O)N[C@@H](CCSC)C(=O)N[C@@H](CC(C)C)C(N)=O)[C@@H](C)O [QLX-227-1] (H-KWMIKWPSNWFTML-NH2),25% hemolytic concentration (HC25),[1],100.92 µg/mL
same,MIC (μg/mL) S. aureus CMCC26003,S. aureus CMCC26003 [2],32 µg/mL
same,MIC (μg/mL) K. pneumoniae 7713,K. pneumoniae 7713,64 µg/mL
same,MIC (μg/mL) E. faecium 1042,E. faecium 1042,32 µg/mL
same,MIC (μg/mL) E. faecium 21,E. faecium 21,16 µg/mL
same,MIC (μg/mL) S. aureus ATCC33592,S. aureus ATCC33592,64 µg/mL
same,MIC (μg/mL) S. aureus CICC25138,S. aureus CICC25138,64 µg/mL
same,MIC (μg/mL) E.coli 208,E.coli 208,16 µg/mL
same,MIC (μg/mL) E.coli 110,E.coli 110,32 µg/mL
same,MIC (μg/mL) E.coli CMCC44102,E.coli CMCC44102,32 µg/mL
"CC(=O)N[C@@H](CC(C)C)C(=O)N[C@@H](CCCCN)C(=O)N[C@@H](CCCNC(=N)N)C(=O)N[C@H](C(=O)N[C@@H](Cc1c[nH]c2ccccc12)C(=O)N[C@@H](CCCCN)C(=O)N[C@@H](CCCNC(=N)N)C(=O)N[C@H](C(=O)N[C@@H](Cc1ccccc1)C(=O)N[C@@H](CCCCN)C(=O)N[C@@H](CC(C)C)C(=O)N[C@@H](CC(C)C)C(=O)N[C@@H](CCCCN)C(=O)N[C@@H](CCCNC(=N)N)C(=O)N[C@@H](Cc1ccc(O)cc1)C(=O)N[C@@H](Cc1c[nH]c2ccccc12)C(=O)N[C@@H](CCCNC(=N)N)C(=O)N[C@@H](CCC(N)=O)C(=O)N[C@@H](CC(C)C)C(=O)N[C@@H](CCCCN)C(=O)N[C@@H](CCCCN)C(=O)N1CCC[C@H]1C(=O)N[C@H](C(=O)N[C@@H](CCCNC(=N)N)C(N)=O)C(C)C)C(C)C)C(C)C [SAAP-148, reference compound] (Ac-LKRVWKRVFKLLKRYWRQLKKPVR-NH2)",25% hemolytic concentration (HC25),[1],26.89 µg/mL
same,survival rate over 96 h,mice,50%
CCC[C@@H]1C[C@@H](C(=O)N[C@@H]([C@H]2O[C@H](SC)[C@H](O)[C@@H](O)[C@H]2O)[C@H](C)Cl)N(C)C1 [clindamycin],passages after which S. aureus developed resistance,S. aureus CMCC26003 [3],15 passages
CN[C@H](CC(C)C)C(=O)N[C@H]1C(=O)N[C@@H](CC(N)=O)C(=O)N[C@H]2C(=O)N[C@H]3C(=O)N[C@H](C(=O)N[C@H](C(=O)O)c4cc(O)cc(O)c4-c4cc3ccc4O)[C@H](O)c3ccc(c(Cl)c3)Oc3cc2cc(c3O[C@@H]2O[C@H](CO)[C@@H](O)[C@H](O)[C@H]2O[C@H]2C[C@](C)(N)[C@H](O)[C@H](C)O2)Oc2ccc(cc2Cl)[C@H]1O [vancomycin],factor of decrease in susceptibility by the 20th passage,S. aureus CMCC26003 [3]; 20 passages,64
same,passages after which S. aureus developed resistance,S. aureus CMCC26003 [3],18 passages
